According to patent EP1801112A1, “Bicyclic pyrimidines and bicyclic 3,4-dihydropyrimidines as inhibitors of cellular proliferation” (Warner-Lambert Company LLC, priority 1998, dated 1999):
Like-named read-outs stand apart in the source and are kept apart here.

Assays:
Format in all cases: biochemical
cdc2/cyclinB = cdc2/cyclinB (Homo sapiens, UniProt P06493); assay: Cyclin-Dependent Kinase Assay cdc2/cyclinB
Method: (§1) Cyclin-Dependent Kinase Assays (cdk2/cyclinE, cdk2/cyclinA, cdc2/cyclinB)
(§2) All components except the ATP were added to the wells, and the plate was placed on a plate mixer for 2 minutes. The reaction was begun by addition of [^32P]ATP, and the plate was incubated at 25°C for 15 minutes. The reaction was terminated by addition of 0.1 mL of 20% TCA. The plate was kept at 4°C for at least 1 hour to allow the substrate to precipitate. The wells were then washed five times with 0.2 mL of 10% TCA and ^32P incorporation determined with a beta plate counter (Wallac Inc., Gaithersburg, MD).

cdk2/cyclinA = cdk2/cyclinA (Homo sapiens, UniProt P24941); assay: Cyclin-Dependent Kinase Assay cdk2/cyclinA
Method: as §1, §2

cdk4/D = cdk4/D (Homo sapiens, UniProt P11802); assay: Cyclin-Dependent Kinase 4 (cdk4) Assay
Chain of cdk4/D (P11802 whole entry): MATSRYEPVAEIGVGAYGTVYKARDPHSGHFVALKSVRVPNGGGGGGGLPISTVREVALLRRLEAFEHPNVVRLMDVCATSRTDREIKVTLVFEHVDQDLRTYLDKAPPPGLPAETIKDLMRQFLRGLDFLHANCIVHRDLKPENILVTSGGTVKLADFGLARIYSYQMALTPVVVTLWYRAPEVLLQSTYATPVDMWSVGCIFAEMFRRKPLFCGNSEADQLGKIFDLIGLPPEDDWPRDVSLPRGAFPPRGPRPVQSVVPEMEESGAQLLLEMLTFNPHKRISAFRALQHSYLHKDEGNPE
Chain of cdk4/D (P24385 whole entry, further chain): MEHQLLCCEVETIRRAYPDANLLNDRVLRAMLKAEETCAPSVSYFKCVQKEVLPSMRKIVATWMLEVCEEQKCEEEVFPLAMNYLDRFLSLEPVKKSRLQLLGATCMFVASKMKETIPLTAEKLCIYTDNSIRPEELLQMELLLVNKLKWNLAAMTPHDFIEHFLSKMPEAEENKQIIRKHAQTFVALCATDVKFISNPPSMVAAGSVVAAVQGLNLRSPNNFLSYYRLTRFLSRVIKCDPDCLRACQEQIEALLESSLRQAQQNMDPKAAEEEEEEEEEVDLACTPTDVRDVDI
Method: A typical assay, for instance, measures inhibitory activity against the cyclin D dependent kinase 4 enzyme (cdk4/D). […] The cdk4 assay was carried out as follows.
Cyclin-Dependent Kinase 4 (cdk4) Assay
Enzyme assays for IC50 determinations (Tables 1 and 2) and kinetic evaluation were performed in 96 well filter plates (Millipore MADVN6550). The total volume was 0.1 mL containing a final concentration of 20 mM TRIS (tris[hydroxymethyl]aminomethane), at pH 7.4, 50 mM NaCl, 1 mM dithiothreitol, 10 mM MgCl2, 25 µM ATP containing 0.25 µCi of [^32P]ATP, 20 ng of cdk4, 1 µg of retinoblastoma, and appropriate dilutions of a compound of the present invention. All components except the ATP were added to the wells, and the plate was placed on a plate mixer for 2 minutes. The reaction was started by adding [^32P]ATP and the plate was incubated at 25°C for 15 minutes. The reaction was terminated by addition of 0.1 mL of 20% trichloroacetic acid (TCA). The plate was kept at 4°C for at least 1 hour to allow the substrate to precipitate. The wells were then washed five times with 0.2 mL of 10% TCA and ^32P incorporation was determined with a beta plate counter (Wallac Inc., Gaithersburg, MD).

cdk2/cyclinE = cdk2/cyclinE (Homo sapiens, UniProt P24941); assay: Cyclin-Dependent Kinase Assay cdk2/cyclinE
Method: as §1, §2

[1] = target: T1, FGF-1 (flg) receptor tyrosine kinase (Homo sapiens, UniProt P11362); assay: FGF Receptor Tyrosine Kinase Assay; conditions: glutamate-tyrosine co-polymer substrate, 50 µM ATP
T1 construct: amplify a fragment of DNA that codes for the intracellular tyrosine kinase domain; made in house; host or cells: SF9 insect cells (baculovirus); crude cell lysate used
T1 sequence (P11362 478-767 limits assumed): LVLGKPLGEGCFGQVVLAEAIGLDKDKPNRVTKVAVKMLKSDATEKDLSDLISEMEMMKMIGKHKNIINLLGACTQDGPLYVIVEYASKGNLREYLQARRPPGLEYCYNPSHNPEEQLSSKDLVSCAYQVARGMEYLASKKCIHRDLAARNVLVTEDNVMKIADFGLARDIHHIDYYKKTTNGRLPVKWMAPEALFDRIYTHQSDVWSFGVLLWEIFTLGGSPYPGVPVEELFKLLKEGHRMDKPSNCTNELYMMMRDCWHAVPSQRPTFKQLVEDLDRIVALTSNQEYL
Method: PDGF and FGF Receptor Tyrosine Kinase Assays
PCR primers were designed to amplify a fragment of DNA that codes for the intracellular tyrosine kinase domain. The fragment was inserted into a baculovirus vector, cotransfected with AcMNPV DNA, and the recombinant virus isolated. SF9 insect cells were infected with the virus to overexpress the protein, and the cell lysate was used for the assay. Assays were performed in 96-well plates (100 µL/incubation/well), and conditions were optimized to measure the incorporation of ^32P from γ^32P-ATP into a glutamate-tyrosine co-polymer substrate. Briefly, to each well was added 82.5 µL of incubation buffer containing 25 mM Hepes (pH 7.0), 150 mM NaCl, 0.1% Triton X-100, 0.2 mM PMSF, 0.2 mM Na3VO4, 10 mM MnCl2, and 750 µg/mL of Poly (4:1) glutamate-tyrosine followed by 2.5 µL of inhibitor and 5 µL of enzyme lysate (7.5 µg/µL FGF-TK or 6.0 µg/µL PDGF-TK) to initiate the reaction. […] The reaction was terminated by the addition of 100 µL of 30% trichloroacetic acid (TCA) containing 20 mM sodium pyrophosphate and precipitation of material onto glass fiber mats (Wallac). […] Nonspecific activity was defined as radioactivity retained on the filters following incubation of samples with buffer alone (no enzyme). Specific enzymatic activity (enzyme plus buffer) was defined as total activity minus nonspecific activity. […]

[2] = retinoblastoma substrate, read-out: IC50 (µM) cdkl/B
[3] = 25 µM ATP, retinoblastoma substrate, read-out: IC50 (µM) cdk4/D
[4] = retinoblastoma substrate, read-out: IC50 (µM) cdk2/E
[5] = retinoblastoma substrate, read-out: IC50 (µM) cdk2/A

Chain of cdc2/cyclinB (P06493 whole entry): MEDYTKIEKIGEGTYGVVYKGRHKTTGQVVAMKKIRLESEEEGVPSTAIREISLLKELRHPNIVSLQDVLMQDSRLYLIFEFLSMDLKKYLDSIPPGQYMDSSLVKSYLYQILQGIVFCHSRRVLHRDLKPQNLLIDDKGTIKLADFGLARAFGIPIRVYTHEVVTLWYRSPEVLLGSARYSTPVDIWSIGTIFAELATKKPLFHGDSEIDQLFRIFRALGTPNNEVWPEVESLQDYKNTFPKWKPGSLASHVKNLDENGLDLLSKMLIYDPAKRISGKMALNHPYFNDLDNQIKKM
Chain of cdc2/cyclinB (P14635 whole entry, further chain): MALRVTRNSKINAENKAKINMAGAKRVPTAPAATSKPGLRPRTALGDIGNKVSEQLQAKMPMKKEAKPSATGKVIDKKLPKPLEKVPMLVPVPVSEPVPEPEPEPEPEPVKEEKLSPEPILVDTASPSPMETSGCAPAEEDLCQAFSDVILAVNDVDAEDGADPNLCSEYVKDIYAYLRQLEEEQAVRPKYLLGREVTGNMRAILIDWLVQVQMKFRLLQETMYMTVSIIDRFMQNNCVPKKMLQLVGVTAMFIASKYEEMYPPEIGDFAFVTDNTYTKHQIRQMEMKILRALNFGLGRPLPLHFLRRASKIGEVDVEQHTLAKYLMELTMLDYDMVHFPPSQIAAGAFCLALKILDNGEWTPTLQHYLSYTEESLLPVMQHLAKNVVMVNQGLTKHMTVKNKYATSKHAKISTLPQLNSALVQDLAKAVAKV

SMILES	IC50 (cdc2/cyclinB) [µM]	IC50 (cdk2/cyclinA) [µM]	IC50 (cdk4/D) [µM]	IC50 (cdk2/cyclinE) [µM]	further results
CN1CCN(c2ccc(Nc3ncc4c(n3)N(C)C(=O)NC4)cc2)CC1 [Example 28, 1-Methyl-7-[4-(4-methylpiperazin-1-yl)phenylamino]-3,4-dihydropyrimido[4,5-d]pyrimidin-2(1H)-one; compound with trifluoroacetic acid]	> 40	> 40	–	–	–
CN1C(=O)NCc2cnc(Nc3ccc(N4CCC(O)CC4)cc3)nc21 [Example 29, 7-[4-(4-Hydroxypiperidin-1-yl)phenylamino]-1-methyl-3,4-dihydropyrimido[4,5-d]pyrimidin-2(1H)-one; compound with trifluoroacetic acid]	> 40	> 40	> 40	–	–
CN1CCN(c2ccc(Nc3ncc4cnc(=O)n(C)c4n3)cc2)CC1 [Example 45, 1-Methyl-7-[4-(4-methylpiperazin-1-yl)phenylamino]pyrimido[4,5-d]pyrimidin-2(1H)-one]	> 40	> 40	16.2	–	–
CC(C)n1c(=O)ncc2cnc(Nc3ccc(-n4cccn4)cc3)nc21 [Example 42, 1-Isopropyl-7-[4-(pyrazol-1-yl)phenylamino]pyrimido[4,5-d]pyrimidin-2(1H)-one]	> 40	5.81	3.9	> 40	–
CC(C)N1C(=O)NCc2cnc(Nc3ccc(N4CCC(O)CC4)cc3)nc21 [Example 23, 7-[4-(4-Hydroxypiperidin-1-yl)phenylamino]-1-isopropyl-3,4-dihydropyrimido[4,5-d]pyrimidin-2(1H)-one]	> 40	4.39	–	16.8	–
Cn1c(=O)ncc2cnc(Nc3ccc(-n4cccn4)cc3)nc21 [Example 47, 1-Methyl-7-[4-(pyrazol-1-yl)phenylamino]pyrimido[4,5-d]pyrimidin-2(1H)-one]	> 40	> 40	> 40	–	–
CC(C)N1C(=O)NCc2cnc(Nc3ccc(-n4cccn4)cc3)nc21 [Example 25, 1-Isopropyl-7-[4-(pyrazol-1-yl)phenylamino]-3,4-dihydro-pyrimido[4,5-d]pyrimidin-2(1H)-one; compound with trifluoroacetic acid]	36.5	2.31	–	10	–
O=C1NCc2cnc(Nc3ccc(N4CCC(CCCO)CC4)cc3)nc2N1C1CCCC1 [Example 20, 1-Cyclopentyl-7-{4-[4-(3-hydroxypropyl)piperidin-1-yl]phenylamino}-3,4-dihydro-pyrimido[4,5-d]pyrimidin-2(1H)-one]	> 40	2.72	0.42	5.35	–
CC(C)N1C(=O)NCc2cnc(Nc3ccc(N4CCC(CCCN5CCOCC5)CC4)cc3)nc21 [Example 26, 1-Isopropyl-7-{4-[4-(3-(morpholin-1-yl)propyl)piperidin-1-yl]phenylamino}-3,4-dihydro-pyrimido[4,5-d]pyrimidin-2(1H)-one]	–	–	–	–	inhibition at 40 µM (cdk4/D; read-out: % Inhibition at 40 µM cdk4/D): 47%
O=c1ncc2cnc(Nc3ccc(N4CCC(O)CC4)cc3)nc2n1C1CCCC1 [Example 33, 1-Cyclopentyl-7-[4-(4-hydroxypiperidin-1-yl)phenylamino]pyrimido[4,5-d]pyrimidin-2(1H)-one]	–	–	–	–	IC50 (cdc2/cyclinB; [2]): 9.76 µM; IC50 (cdk4/D; [3]): 0.038 µM; IC50 (cdk2/cyclinE; [4]): 4.2 µM; IC50 (cdk2/cyclinA; [5]): 0.98 µM
CCN(CC)CCOc1ccc(Nc2ncc3cnc(=O)n(C4CCCC4)c3n2)cc1C [Example 34, 1-Cyclopentyl-7-{3-methyl-4-[2-(diethylamino)ethoxy]-phenylamino}pyrimido[4,5-d]pyrimidin-2(1H)-one]	7.51	3.22	0.079	3.15	–
O=c1ncc2cnc(Nc3ccc(N4CCCCC4)cc3)nc2n1C1CCCC1 [Example 38, 1-Cyclopentyl-7-[4-(piperidin-1-yl)phenylamino]pyrimido[4,5-d]pyrimidin-2(1H)-one]	–	–	–	–	IC50 (cdc2/cyclinB; [2]): 35.2 µM; IC50 (cdk4/D; [3]): 0.15 µM; IC50 (cdk2/cyclinE; [4]): 2.78 µM; IC50 (cdk2/cyclinA; [5]): 0.77 µM
CN1C(=O)NCc2cnc(Nc3ccc(N4CCC(N(C)C)CC4)cc3)nc21 [Example 30, 7-{4-[4-(Dimethylamino)piperidin-1-yl]phenylamino}-1-methyl-3,4-dihydropyrimido[4,5-d]pyrimidin-2(1H)-one; compound with trifluoroacetic acid]	> 40	> 40	18.2	–	–
CN1C(=O)NCc2cnc(Nc3ccc(-n4cccn4)cc3)nc21 [Example 31, 1-Methyl-7-[4-(pyrazol-1-yl)phenylamino]-3,4-dihydro-pyrimido[4,5-d]pyrimidin-2(1H)-one; compound with trifluoroacetic acid]	> 40	> 40	–	–	–
CC(C)N1C(=O)NCc2cnc(Nc3ccc(N4CCC(N(C)C)CC4)cc3)nc21 [Example 24, 7-{4-[4-(Dimethylamino)piperidin-1-yl]phenylamino}-1-isopropyl-3,4-dihydro-pyrimido[4,5-d]pyrimidin-2(1H)-one; compound with trifluoroacetic acid]	> 40	12.3	–	34	–
COc1ccc(Nc2ncc3c(n2)N(C2CCCC2)C(=O)NC3)cc1 [Example 9, 1-Cyclopentyl-7-(4-methoxyphenylamino)-3,4-dihydro-pyrimido[4,5-d]pyrimidin-2(1H)-one]	–	–	5.75	–	IC50 [1]: 0.36 µM
CN(C)C1CCN(c2ccc(Nc3ncc4cnc(=O)n(C)c4n3)cc2)CC1 [Example 46, 7-{4-[4-(Dimethylamino)piperidin-1-yl]phenylamino}-1-methyl-pyrimido[4,5-d]pyrimidin-2(1H)-one]	> 40	> 40	> 40	–	IC50 [1]: 22.6 µM
COc1ccc(Nc2ncc3cnc(=O)n(C4CCCC4)c3n2)cc1 [Example 37, 1-Cyclopentyl-7-(4-methoxyphenylamino)pyrimido[4,5-d]pyrimidin-2(1H)-one]	4.76	0.4	0.22	0.9	–
CCN(CC)CCOc1ccc(Nc2ncc3c(n2)N(C2CCCC2)C(=O)NC3)cc1C [Example 13, 1-Cyclopentyl-7-{3-methyl-4-[2-(diethylamino)ethoxy]phenylamino}-3,4-dihydro-pyrimido[4,5-d]pyrimidin-2(1H)-one]	–	–	0.3	–	IC50 [1]: 0.05 to 0.5 µM
